Data published in US20090018111A1, “Novel Antimicrobial Medicament” (priority 2004, published 2009).
Read-outs that look alike come from different tables or passages of the source.

Assays:
Assay in all cases: Sensitivity test (agar dilution)
P. mirabiris GN2425 = assay type: cell-based, Proteus mirabilis; details: Proteus mirabilis
Outline: (§1)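 Each strain, cultured overnight at 37° C and adjusted to about 10^6 CFU/ml in BSG, was spotted (about 5 μl) on Mueller Hinton agar with twofold serial drug concentrations. Inhibition defines the MIC.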

S. marcescens GN6473 = assay type: cell-based, Serratia marcescens; details: Serratia marcescens
Outline: as §1

S. marcescens X 100 = assay type: cell-based, Serratia marcescens
Outline: as §1

E. cloacae GN7471 = assay type: cell-based, Enterobacter cloacae; details: Enterobacter cloacae, E. cloacae GN7471, read-out: MIC concomitant
Outline: as §1

Which MIC (P. mirabiris GN2425; GN2425, Concomitant (IPM:SM = 1:1)) does the source give for `C[C@H]1C=C(c2csc(SC3=C(C(=O)O)N4C(=O)[C@H]([C@@H](C)O)[C@H]4[C@H]3C)n2)CN1` [SM, (4R,5S,6S)-6-[(1R)-1-Hydroxyethyl]-4-methyl-3-({4-[(5S)-5-methyl-2,5-dihydro-1H-pyrrol-3-yl]-1,3-thiazol-2-yl}sulfanyl)-7-oxo-1-azabicyclo[3.2.0]hept-2-ene-2-carboxylic acid] here?
The MIC was 0.25 µg/mL.

And the MIC (P. mirabiris GN2425; GN2425, Concomitant (MEPM:SM = 1:1))?
Its MIC is no more than 0.016 µg/mL.

What about the MIC (P. mirabiris GN2425; GN2425, Concomitant (MEPM:SM = 1:2)) of the same compound?
The MIC was 0.063 µg/mL.

What about the MIC (P. mirabiris GN2425; GN2425, Concomitant (MEPM:SM = 1:4)) of the same compound?
The MIC was no more than 0.063 µg/mL.

And the MIC (P. mirabiris GN2425; GN2425, Concomitant drug (MEPM:SM = 2:1))?
Its MIC is 0.016 µg/mL.

And the MIC (P. mirabiris GN2425; GN2425, alone)?
Its MIC is 0.125 µg/mL.

And the MIC (P. mirabiris GN2425; GN2425, read-out: MIC alone, drug alone, P. mirabiris GN2425)?
Its MIC is 0.125 µg/mL.

And the MIC (P. mirabiris GN2425; GN2425, read-out: MIC concomitant, Concomitant (AZT:SM = 1:1), P. mirabiris GN2425)?
Its MIC is 0.004 µg/mL.

And the MIC (P. mirabiris GN2425; GN2425, read-out: MIC concomitant, Concomitant (BIPM:SM = 1:1), P. mirabiris GN2425)?
The MIC was 0.125 µg/mL.

What about the MIC (P. mirabiris GN2425; GN2425, read-out: MIC concomitant, Concomitant (CAZ:SM = 1:1), P. mirabiris GN2425) of the same compound?
Its MIC is 0.031 µg/mL.

And the MIC (P. mirabiris GN2425; GN2425, read-out: MIC concomitant, Concomitant (CPFX:SM = 1:1), P. mirabiris GN2425)?
The MIC was 0.031 µg/mL.

And the MIC (P. mirabiris GN2425; GN2425, read-out: MIC concomitant, Concomitant (DRPM:SM = 1:1), P. mirabiris GN2425)?
Its MIC is 0.063 µg/mL.

What about the MIC (P. mirabiris GN2425; GN2425, read-out: MIC concomitant, Concomitant (PAPM:SM = 1:1), P. mirabiris GN2425) of the same compound?
The MIC was 0.125 µg/mL.

What about the MIC (P. mirabiris GN2425; GN2425, read-out: MIC concomitant, Concomitant (PIPC:SM = 1:1), P. mirabiris GN2425) of the same compound?
The MIC was 0.063 µg/mL.

And the MIC (S. marcescens GN6473; GN6473, Concomitant (AZT:SM = 1:1), S. marcescens GN6473, read-out: MIC concomitant)?
Its MIC is 0.25 µg/mL.

What about the MIC (S. marcescens GN6473; GN6473, Concomitant (BIPM:SM = 1:1), S. marcescens GN6473, read-out: MIC concomitant) of the same compound?
The MIC was 0.125 µg/mL.

And the MIC (S. marcescens GN6473; GN6473, Concomitant (CAZ:SM = 1:1), S. marcescens GN6473, read-out: MIC concomitant)?
Its MIC is 0.5 µg/mL.

And the MIC (S. marcescens GN6473; GN6473, Concomitant (CPFX:SM = 1:1), S. marcescens GN6473, read-out: MIC concomitant)?
The MIC was 1 µg/mL.

What about the MIC (S. marcescens GN6473; GN6473, Concomitant (DRPM:SM = 1:1), S. marcescens GN6473, read-out: MIC concomitant) of the same compound?
Its MIC is 0.063 µg/mL.

And the MIC (S. marcescens GN6473; GN6473, Concomitant (IPM:SM = 1:1), read-out: MIC)?
The MIC was 0.25 µg/mL.

What about the MIC (S. marcescens GN6473; GN6473, Concomitant (MEPM:SM = 1:1), read-out: MIC) of the same compound?
The MIC was 0.031 µg/mL.

And the MIC (S. marcescens GN6473; GN6473, Concomitant (MEPM:SM = 1:2), read-out: MIC)?
Its MIC is 0.063 µg/mL.

What about the MIC (S. marcescens GN6473; GN6473, Concomitant (MEPM:SM = 1:4), read-out: MIC) of the same compound?
The MIC was 0.125 µg/mL.

What about the MIC (S. marcescens GN6473; GN6473, Concomitant (PAPM:SM = 1:1), S. marcescens GN6473, read-out: MIC concomitant) of the same compound?
The MIC was 0.25 µg/mL.

What about the MIC (S. marcescens GN6473; GN6473, Concomitant (PIPC:SM = 1:1), S. marcescens GN6473, read-out: MIC concomitant) of the same compound?
Its MIC is 4 µg/mL.

What about the MIC (S. marcescens GN6473; GN6473, Concomitant drug (MEPM:SM = 2:1), read-out: MIC) of the same compound?
The MIC was 0.016 µg/mL.

And the MIC (S. marcescens GN6473; GN6473, alone, read-out: MIC)?
The MIC was 4 µg/mL.

And the MIC (S. marcescens GN6473; GN6473, drug alone, S. marcescens GN6473, read-out: MIC alone)?
Its MIC is 4 µg/mL.

And the MIC (S. marcescens X 100; Serratia marcescens, X100, Concomitant (AZT:SM = 1:1), S. marcescens X 100, read-out: MIC concomitant)?
The MIC was 0.031 µg/mL.

And the MIC (S. marcescens X 100; Serratia marcescens, X100, Concomitant (BIPM:SM = 1:1), S. marcescens X 100, read-out: MIC concomitant)?
Its MIC is 0.063 µg/mL.

And the MIC (S. marcescens X 100; Serratia marcescens, X100, Concomitant (CAZ:SM = 1:1), S. marcescens X 100, read-out: MIC concomitant)?
The MIC was 0.125 µg/mL.

And the MIC (S. marcescens X 100; Serratia marcescens, X100, Concomitant (CPFX:SM = 1:1), S. marcescens X 100, read-out: MIC concomitant)?
The MIC was 0.063 µg/mL.

What about the MIC (S. marcescens X 100; Serratia marcescens, X100, Concomitant (DRPM:SM = 1:1), S. marcescens X 100, read-out: MIC concomitant) of the same compound?
The MIC was 0.031 µg/mL.

What about the MIC (S. marcescens X 100; Serratia marcescens, X100, Concomitant (IPM:SM = 1:1), read-out: MIC) of the same compound?
Its MIC is 0.125 µg/mL.

And the MIC (S. marcescens X 100; Serratia marcescens, X100, Concomitant (MEPM:SM = 1:1), read-out: MIC)?
The MIC was no more than 0.016 µg/mL.

What about the MIC (S. marcescens X 100; Serratia marcescens, X100, Concomitant (MEPM:SM = 1:2), read-out: MIC) of the same compound?
Its MIC is no more than 0.031 µg/mL.

And the MIC (S. marcescens X 100; Serratia marcescens, X100, Concomitant (MEPM:SM = 1:4), read-out: MIC)?
Its MIC is no more than 0.063 µg/mL.

And the MIC (S. marcescens X 100; Serratia marcescens, X100, Concomitant (PAPM:SM = 1:1), S. marcescens X 100, read-out: MIC concomitant)?
Its MIC is 0.125 µg/mL.

And the MIC (S. marcescens X 100; Serratia marcescens, X100, Concomitant (PIPC:SM = 1:1), S. marcescens X 100, read-out: MIC concomitant)?
Its MIC is 0.25 µg/mL.

What about the MIC (S. marcescens X 100; Serratia marcescens, X100, Concomitant drug (MEPM:SM = 2:1), read-out: MIC) of the same compound?
The MIC was 0.016 µg/mL.

What about the MIC (S. marcescens X 100; Serratia marcescens, X100, alone, read-out: MIC) of the same compound?
Its MIC is 0.5 µg/mL.

What about the MIC (S. marcescens X 100; Serratia marcescens, X100, drug alone, S. marcescens X 100, read-out: MIC alone) of the same compound?
The MIC was 1 µg/mL.

And the MIC (S. marcescens X 100; alone)?
Its MIC is 1 µg/mL.

What about the MIC (E. cloacae GN7471; GN7471, Concomitant (AZT:SM = 1:1)) of the same compound?
The MIC was 4 µg/mL.

And the MIC (E. cloacae GN7471; GN7471, Concomitant (BIPM:SM = 1:1))?
The MIC was 0.063 µg/mL.

What about the MIC (E. cloacae GN7471; GN7471, Concomitant (CAZ:SM = 1:1)) of the same compound?
Its MIC is 8 µg/mL.
